Here are results for 15 molecules from patent US20240300980A1, “HETEROCYCLIC COMPOUNDS AS KRAS INHIBITOR, AND PREPARATION THEREFOR AND USE THEREOF IN TREATMENT” (SHANGHAI KECHOW PHARMA, INC., priority 2021, published 2024).

Some results are limits rather than exact numbers.

In the assay the test system is AGS cells (KRAS^G12D). Put plainly: Detection of cell proliferation in vitro by MTT/MTS method (cell activity experiment). The class given is cell-based. As to conditions: Homo sapiens, AGS, 72 h, AGS cells; MTT/MTS; 3 days of drug treatment; read-out: AGS IC50. In short, it runs like this:
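KRAS G12D AGS cells seeded at 1000 per well, compound added 24 h later, 0.5% final DMSO. Viability read after 3 days of treatment by MTT (solubilised in DMSO) or MTS, 4 h, absorbance 490 nm. IC50 from dose–response curves versus DMSO control.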
The IC50 is the concentration at which inhibition is half-maximal. On to `C#Cc1c(F)ccc2cc(O)cc(-c3ncc4c(-c5cnn(C(=O)CO)c5)nc(OC[C@@]56CCCN5C[C@H](F)C6)nc4c3F)c12` [Example 87, 1-(4-(7-(8-ethynyl-7-fluoro-3-hydroxynaphthalen-1-yl)-8-fluoro-2-(((2R, 7aS)-2-fluorotetrahydro-1H-pyrrolizin-7a(5H)-yl)methoxy)pyrido[4,3-d]pyrimidin-4-yl)-1H-pyrazol-1-yl)-2-hydroxyethan-1-one], for which the IC50 was > 10000 nM. Turning to `CSc1c(F)ccc2cc(O)cc(-c3ncc4c(N5C[C@H]6CC[C@@H](C5)N6)nc(OC[C@@]56CCCN5C[C@H](F)C6)nc4c3F)c12` [Example 360, 4-(4-((1R,5S)-3,8-diazabicyclo[3.2.1]octan-3-yl)-8-fluoro-2-(((2R,7aS)-2-fluorotetrahydro-1H-pyrrolizin-7a(5H)-yl)methoxy)pyrido[4,3-d]pyrimidin-7-yl)-6-fluoro-5-(methylthio)naphthalen-2-ol], the IC50 came to 10 nM. For the molecule `C#Cc1c(F)ccc2cc(O)cc(-c3ccc4c(N5C[C@H]6CC[C@@H](C5)N6)nc(OC[C@@]56CCCN5C[C@H](F)C6)nc4c3)c12` [Example 148, 4-(4-((1R,5S)-3,8-diazabicyclo[3.2.1]octan-3-yl)-2-(((2R, 7aS)-2-fluorotetrahydro-1H-pyrrolizin-7a(5H)-yl)methoxy)quinazolin-7-yl)-5-ethynyl-6-fluoronaphthalen-2-ol], the IC50 was 318 nM. In the case of `Oc1cc2c(c(-c3ccc4c(N5C[C@H]6CC[C@@H](C5)N6)nc(OC[C@@]56CCCN5C[C@H](F)C6)nc4c3F)c1)CCCC2` [Example 420, 4-(4-((1R,5S)-3,8-diazabicyclo[3.2.1]octan-3-yl)-8-fluoro-2-(((2R,7aS)-2-fluorotetrahydro-1H-pyrrolizin-7a(5H)-yl)methoxy)quinazolin-7-yl)-5,6,7,8-tetrahydronaphthalen-2-ol], the IC50 was determined as 60 nM. `CCc1cccc2cc(O)cc(-c3ncc4c(N5C[C@H]6CC[C@@H](C5)N6)nc(OCC5(CN6CCCC6)CC5)nc4c3F)c12` [Example 4, 4-(4-((1R,5S)-3,8-diazabicyclo[3.2.1]octan-3-yl)-8-fluoro-2-((1-(pyrrolidin-1-ylmethyl)cyclopropyl)methoxy)pyrido[4,3-d]pyrimidin-7-yl)-5-ethylnaphthalen-2-ol]: the IC50 is 11 nM. Consider `C#Cc1cccc2cc(O)cc(-c3ncc4c(N5C[C@H]6CC[C@@H](C5)N6)c(C#N)c(OC[C@@]56CCCN5C[C@H](F)C6)nc4c3F)c12` [Example 189, 4-((1R,5S)-3,8-diazabicyclo[3.2.1]octan-3-yl)-7-(8-ethynyl-3-hydroxynaphthalen-1-yl)-8-fluoro-2-(((2R,7aS)-2-fluorotetrahydro-1H-pyrrolizin-7a(5H)-yl)methoxy)-1,6-naphthyridine-3-carbonitrile], for which the IC50 is 152 nM. Take `C#Cc1c(F)ccc2cc(O)cc(-c3ncc4c(N5CCC6(CCCS6(=O)=O)CC5)nc(OC[C@@]56CCCN5C[C@H](F)C6)nc4c3F)c12` [Example 50, 8-(7-(8-ethynyl-7-fluoro-3-hydroxynaphthalen-1-yl)-8-fluoro-2-(((2R, 7aS)-2-fluorotetrahydro-1H-pyrrolizin-7a(5H)-yl)methoxy)pyrido[4,3-d]pyrimidin-4-yl)-1-thia-8-azaspiro[4.5] decane 1,1-dioxide]: the IC50 was > 10000 nM. As to `CC1(C)CCCc2cc(O)cc(-c3ncc4c(N5C[C@H]6CC[C@@H](C5)N6)nc(OC[C@@]56CCCN5C[C@H](F)C6)nc4c3F)c21` [Example 254, 4-(4-((1R,5S)-3,8-diazabicyclo[3.2.1]octan-3-yl)-8-fluoro-2-(((2R,7aS)-2-fluorotetrahydro-1H-pyrrolizin-7a(5H)-yl)methoxy)pyrido[4,3-d]pyrimidin-7-yl)-5,5-dimethyl-5,6,7,8-tetrahydronaphthalen-2-ol], the IC50 was 462 nM. As to `C#Cc1c(F)ccc2cc(O)cc(-c3c(CCC#N)cc4c(N5C[C@H]6CC[C@@H](C5)N6)nc(OC[C@@]56CCCN5C[C@H](F)C6)nc4c3F)c12` [Example 378, 3-(4-((1R,5S)-3,8-diazabicyclo[3.2.1]octan-3-yl)-7-(8-ethynyl-7-fluoro-3-hydroxynaphthalen-1-yl)-8-fluoro-2-(((2R,7aS)-2-fluorotetrahydro-1H-pyrrolizin-7a(5H)-yl)methoxy)quinazolin-6-yl)propanenitrile], the IC50 came out at 160 nM. As to `C#Cc1c(F)ccc2cc(O)cc(-c3ccc4c(N5C[C@H]6CC[C@@H](C5)C6(F)F)nc(OC[C@@]56CCCN5C[C@H](F)C6)nc4c3F)c12` [Example 119, 4-(4-((1R,5S)-8,8-difluoro-3-azabicyclo [3.2.1]octan-3-yl)-8-fluoro-2-(((2R,7aS)-2-fluorotetrahydro-1H-pyrrolizin-7a(5H)-yl)methoxy)quinazolin-7-yl)-5-ethynyl-6-fluoronaphthalen-2-ol], the IC50 is > 2500 nM. Turning to `C#Cc1cccc2cc(O)cc(-c3ccc4c(C5C[C@H]6CC[C@@H](C5)N6)nc(OC[C@@]56CCCN5C[C@H](F)C6)nc4c3F)c12` (stereo partly drawn) [Example 138, 4-(4-((1R,5S)-8-azabicyclo[3.2.1]octan-3-yl)-8-fluoro-2-(((2R, 7aS)-2-fluorotetrahydro-1H-pyrrolizin-7a(5H)-yl)methoxy)quinazolin-7-yl)-5-ethynylnaphthalen-2-ol], the IC50 is > 2500 nM.

For the molecule `CCc1c(F)ccc2cc(O)cc(-c3ncc4c(N5C[C@H]6CC[C@@H](C5)S6)nc(OC[C@@]56CCCN5C[C@H](F)C6)nc4c3F)c12` [Example 24, 4-(4-((1R,5S)-8-thia-3-azabicyclo[3.2.1]octan-3-yl)-8-fluoro-2-(((2R, 7aS)-2-fluorotetrahydro-1H-pyrrolizin-7a(5H)-yl)methoxy)pyrido[4,3-d]pyrimidin-7-yl)-5-ethyl-6-fluoronaphthalen-2-ol], the IC50 came to 280 nM.

On to `CCc1c(F)ccc2cc(O)cc(-c3ncc4c(N5CC6CCC(C5)C6F)nc(OC[C@@]56CCCN5C[C@H](F)C6)nc4c3F)c12` (stereo partly drawn) [Example 35, 5-ethyl-6-fluoro-4-(8-fluoro-4-((1R,5S,8R)-8-fluoro-3-azabicyclo [3.2.1]octan-3-yl)-2-(((2R,7aS)-- fluorotetrahydro-1H-pyrrolizin-7a(5H)-yl)methoxy)pyrido[4,3-d]pyrimidin-7-yl) naphthalen-2-ol], for which the IC50 is > 2500 nM. As to `CCc1cccc2cc(O)cc(-c3ccc4c(N5C[C@H]6CC[C@@H](C5)N6)nc(OC[C@@]56CCCN5C[C@H](F)C6)nc4c3F)c12` [Example 93, 4-(4-((1R,5S)-3,8-diazabicyclo[3.2.1]octan-3-yl)-8-fluoro-2-(((2R,7aS)-2-fluorotetrahydro-1H-pyrrolizin-7a(5H)-yl)methoxy)quinazolin-7-yl)-5-ethylnaphthalen-2-ol], the IC50 is 10.1 nM. Consider `C#Cc1cccc2cc(O)cc(-c3ncc4c(N5C[C@H]6CC[C@@H](C5)O6)nc(OC[C@@]56CCCN5C[C@H](F)C6)nc4c3F)c12` [Example 11, 4-(4-((1R,5S)-8-oxa-3-azabicyclo[3.2.1]octan-3-yl)-8-fluoro-2-(((2R,7aS)-2-fluorotetrahydro-1H-pyrrolizin-7a(5H)-yl)methoxy)pyrido[4,3-d]pyrimidin-7-yl)-5-ethynylnaphthalen-2-ol], for which the IC50 was found to be 390 nM.
